Laboratory results published in ChEMBL document CHEMBL5727593, “Use of physiological cooling active ingredients, and agents containing such active ingredients” (2020).

Biological target: Transient receptor potential cation channel subfamily M member 8 (Homo sapiens, UniProt Q7Z2W7)
Experiment: The agonisation or antagonisation of the receptor can be quantified by means of a Ca2+-sensitive dye (e.g. FURA, Fluo-4, etc.). Agonists on their own bring about an increase in the Ca2+-signal; antagonists in the presence of, for example, menthol bring about a reduction in the Ca2+-signal (in each case detected by means of the Fluo-4 dye, which due to the Ca2+ has other fluorescent properties).To begin with, in a manner known per se, in cell culture flasks a fresh culture of transformed HEK cells is prepared. The HEK293-TRPM8 test cells are removed using trypsin from the cell culture flasks and 40 000 cells/well are sown with 100 μl medium in 96-well plates (Greiner #655948 Poly-D-lysine coated). In order to induce the TRPM8 receptor the growth medium tetracycline is mixed in (DMEM/HG, 10% FCS tetracycline-free, 4 mM L-glutamine, 15 μg/ml blasticidin, 100 μg/ml hygromycin B, 1 μg/ml tetracycline). The next day the cells are charged with Fluo-4Am dye and the test is performed. The procedure is as follows: Addition of 100 μl/well of dye solution Ca-4 Kit (RB 141, Molecular Devices) per 100 μl of medium (DMEM/HG, 10% FCS tetracycline-free, 4 mM L-glutamine, 15 μg/ml blasticidin, 100 μg/ml hygromycin B, 1 μg/ml tetracycline). Incubation in the incubator for 30 minutes/37° C./5% CO2, 30 minutes/RT. […]

Sequence of Transient receptor potential cation channel subfamily M member 8 (Q7Z2W7 whole entry): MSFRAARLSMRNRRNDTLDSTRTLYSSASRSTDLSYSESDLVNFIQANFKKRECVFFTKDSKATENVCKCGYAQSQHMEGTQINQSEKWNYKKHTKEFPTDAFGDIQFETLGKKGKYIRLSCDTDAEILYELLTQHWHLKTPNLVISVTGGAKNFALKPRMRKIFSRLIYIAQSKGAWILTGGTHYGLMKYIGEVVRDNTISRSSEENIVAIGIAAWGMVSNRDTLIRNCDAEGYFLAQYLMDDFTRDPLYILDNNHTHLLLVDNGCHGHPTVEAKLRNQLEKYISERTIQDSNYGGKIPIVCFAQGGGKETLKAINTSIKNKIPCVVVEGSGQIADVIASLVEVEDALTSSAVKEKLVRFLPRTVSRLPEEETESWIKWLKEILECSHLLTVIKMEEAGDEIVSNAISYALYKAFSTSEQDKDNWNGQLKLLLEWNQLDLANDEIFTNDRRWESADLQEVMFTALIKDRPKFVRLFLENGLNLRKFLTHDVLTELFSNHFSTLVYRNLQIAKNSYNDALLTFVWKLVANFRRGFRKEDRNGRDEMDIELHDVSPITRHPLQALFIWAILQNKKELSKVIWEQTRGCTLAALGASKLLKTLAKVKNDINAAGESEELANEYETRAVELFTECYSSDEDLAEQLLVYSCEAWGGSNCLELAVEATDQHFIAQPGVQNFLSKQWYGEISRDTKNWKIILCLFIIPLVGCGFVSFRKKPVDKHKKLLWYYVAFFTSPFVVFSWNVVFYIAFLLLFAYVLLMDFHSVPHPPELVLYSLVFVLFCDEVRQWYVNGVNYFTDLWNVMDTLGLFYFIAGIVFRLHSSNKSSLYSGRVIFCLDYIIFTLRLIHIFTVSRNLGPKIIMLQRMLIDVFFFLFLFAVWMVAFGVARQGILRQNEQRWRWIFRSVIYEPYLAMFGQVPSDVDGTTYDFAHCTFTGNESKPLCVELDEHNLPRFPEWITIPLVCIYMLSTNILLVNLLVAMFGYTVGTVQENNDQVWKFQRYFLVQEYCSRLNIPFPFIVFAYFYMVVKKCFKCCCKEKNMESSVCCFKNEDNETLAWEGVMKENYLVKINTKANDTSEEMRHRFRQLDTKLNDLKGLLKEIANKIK

| SMILES | EC50 |
| --- | --- |
| COc1cnc(-c2ccccn2)nc1NC(C)C(C)C (configuration not stated) | 0.5 µM |
| COc1cnc(-c2ccccn2)nc1OC(C)C | 3.2 µM |
